Results reported in ChEMBL document CHEMBL4316589, “Attachment of a 5-nitrofuroyl moiety to spirocyclic piperidines produces non-toxic nitrofurans that are efficacious in vitro against multidrug-resistant Mycobacterium tuberculosis” (Eur J Med Chem, 2019).
Values after ≈ are worked out from the molar mass of the structure shown.

Key:
Type in all cases: functional
[1] = system: Mycobacterium tuberculosis; experiment: Antimycobacterial activity against patient-derived multidrug-resistant Mycobacterium tuberculosis 7106 measured after 7 days by resazurin dye-based assay; details: Mycobacterium tuberculosis, 7106, 168 h
[2] = system: Mycobacterium tuberculosis; experiment: Antimycobacterial activity against patient-derived multidrug-resistant Mycobacterium tuberculosis 2712 measured after 7 days by resazurin dye-based assay; details: Mycobacterium tuberculosis, 2712, 168 h
[3] = system: Mycobacterium tuberculosis; experiment: Antimycobacterial activity against patient-derived multidrug-resistant Mycobacterium tuberculosis 5023 measured after 7 days by resazurin dye-based assay; details: Mycobacterium tuberculosis, 5023, 168 h

Row | Structure (SMILES) | MIC [1] [µg/mL] | MIC [2] [µg/mL] | MIC [3] [µg/mL]
1 | COc1ccc(CC2CCOC3(CCN(C(=O)c4ccc([N+](=O)[O-])o4)CC3)C2)cc1 (stereo unspecified) | 3.1 (≈ 7.48 µM) | 6.2 (≈ 15 µM) | 3.1 (≈ 7.48 µM)
2 | O=C(c1ccc([N+](=O)[O-])o1)N1CCC2(CC1)CC(Cc1nc(-c3cccnc3)no1)CCO2 (stereo unspecified) | 6.2 (≈ 13.7 µM) | 1.6 (≈ 3.53 µM) | 3.1 (≈ 6.84 µM)
3 | O=C(c1ccc([N+](=O)[O-])o1)N1CCC2(CCCCO2)CC1 | 25 (≈ 84.9 µM) | 6.2 (≈ 21.1 µM) | 25 (≈ 84.9 µM)
4 | COCCc1noc(CC2CCOC3(CCN(C(=O)c4ccc([N+](=O)[O-])o4)CC3)C2)n1 (stereo unspecified) | 25 (≈ 57.5 µM) | 12.5 (≈ 28.8 µM) | 12.5 (≈ 28.8 µM)
5 | O=C(c1ccc([N+](=O)[O-])o1)N1CCC2(CC1)CC(OCc1ccc(F)cc1)CCO2 (stereo unspecified) | 6.2 (≈ 14.8 µM) | 25 (≈ 59.7 µM) | 6.2 (≈ 14.8 µM)
6 | O=C(c1ccc([N+](=O)[O-])o1)N1CCC2(CC1)CC(Cc1nc(C3CC3)no1)CCO2 (stereo unspecified) | 6.2 (≈ 14.9 µM) | 3.1 (≈ 7.44 µM) | 12.5 (≈ 30 µM)
7 | Cc1ccc(CC2CCOC3(CCN(C(=O)c4ccc([N+](=O)[O-])o4)CC3)C2)cc1 (stereo unspecified) | 100 (≈ 251 µM) | 100 (≈ 251 µM) | 3.1 (≈ 7.78 µM)
